Data from US20100075917A1, “THIONUCLEOSIDES AND PHARMACEUTICAL APPLICATIONS” (priority 2006, published 2010).
Like-named read-outs stand apart in the source and are kept apart here.

Experiments:
[1] = test system: HeLa cells; experiment: Cytotoxic effect on HeLa cells; type: cell-based; parameters: unit not given beside the values; conditions: Tables 5 and 7, HeLa cells
[2] = test system: HIV-2; experiment: Anti-HIV-2 effect in CEM/TK− cells; type: cell-based; conditions: Human immunodeficiency virus 2, CEM-TK(-); Third Series; CEM cells having no thymidine kinase activity
Experimental: (§1) The evaluation test is described in Roy, B.; Chambert, S.; Lepoivre M.; Aubertin, A.-M.; Balzarini, J.; Décout, J.-L., Deoxyribonucleoside 2′- or 3′-mixed disulfides: prodrugs to target ribonucleotide reductase and/or to inhibit HIV reverse transcription. J. Med. Chem. 2003, 46, 2565-2568.
(§2) The toxicity and the antiviral activities were measured at different concentrations, and their evolution as a function of the concentration makes it possible to evaluate: • the concentration at which 50% of the cells are dead in the absence of virus (CC 50) for each of the test compounds, from the change in absorbance at 540 nm of formazan as a function of the concentration of test compound, • the concentration of compound that leads to a 50% reduction in the activity of viral reverse transcriptase (EC 50). This concentration is determined from the curve representing the change in the percentage of “remaining reverse transcriptase” activity (defined as being the ratio of the activity of the reverse transcriptase in the presence of the test compound to that of the untreated cells) as a function of the concentration of test compound.
(§3) EC50: concentration required to afford 50% protection to the CEM cells against the cytopathogenicity of HIV;
• Effect in CEM not expressing thymidine kinase activity (CEM/TK^−, cells having no thymidine kinase activity).

[3] = Cytotoxic concentration in CEM cells (antiviral tests); type: cell-based, human; conditions: human; First and Second Series, second table; viability of CEM cells
Experimental: as §2
(§4) CC50: cytotoxic concentration or concentration required to reduce the viability of the CEM cells by 50%.

[4] = test system: human CEM T4 lymphocytes; experiment: Cytotoxic effect on CEM T4 lymphocytes; type: cell-based; parameters: unit not given beside the values; conditions: Tables 5 and 7, CEM cells
[5] = test system: HIV-1; experiment: Anti-HIV-1 effect in CEM cells; type: cell-based; conditions: Human immunodeficiency virus 1, CCRF-CEM
Experimental: as §1, §2, §3

[6] = test system: FM3A/0 murine mammary carcinoma cells; experiment: Cytotoxic effect on FM3A/0 cells; type: cell-based; parameters: unit not given beside the values; conditions: Tables 5 and 7, FM3A/0 cells
[7] = test system: human Molt4/C8 cells; experiment: Cytotoxic effect on Molt4/C8 cells; type: cell-based; conditions: Tables 5 and 7, Molt4/C8 cells
[8] = test system: L1210/0 murine leukemia cells; experiment: Cytotoxic effect on L1210/0 cells; type: cell-based; conditions: Tables 5 and 7, L1210/0 cells
[9] = test system: HIV-2; experiment: Anti-HIV-2 effect in CEM cells; type: cell-based; conditions: Human immunodeficiency virus 2, CCRF-CEM, read-out: EC50 HIV-2
Experimental: as §1, §2, §3

[10] = test system: Moloney sarcoma virus; experiment: Inhibition of transformation of mouse embryo C3H/3T3 cells induced by Moloney sarcoma virus; type: cell-based; parameters: MIC (minimum inhibitory concentration): unit not given here; conditions: for EC50: C3H/3T3, read-out: EC50 (effective concentration 50%); for MIC (minimum inhibitory concentration): C3H/3T3 cells, a second bound is given in brackets for some compounds
From the text: 2.2. Inhibitory Effect on the Transformation of Mouse Embryo C3H/3T3 Cells Induced by Moloney Sarcoma Virus (Model of Infection with HIV)

[11] = test system: human CEM cells; experiment: Cytotoxicity (MTT) on CEM cells; type: cell-based; conditions: for EC50: Tables 4 and 6, CEM cells, some values 'then plateau'; for CC50: read-out: CC50 CEM
Experimental: (§5) The cytotoxic effect of a compound is studied on human CEM cells and MCF-7 mammary carcinoma cells that are or are not resistant to gemcitabine, which is an anticancer nucleoside used in chemotherapy.
(§6) The cytotoxicity (CC50) was estimated by measuring the reduction of 3-(4,5-dimethylthiazol-2-yl)-2,5-diphenyltetrazolium bromide (MTT), which is converted into insoluble violet formazan. To do this, 100 000 cells (human CEM-SS or MCF-7 lines) are inoculated per well in 100 μl of culture medium, in 96-well microtitration plates. After 24 hours, the test products are added in 100 μl and incubation is continued for 48 to 72 hours. MIT is then added in a proportion of 20 μl of a solution at 5 mg/ml in PBS. Three hours later, 100 μl of a DMF/acetic acid/HCl/SDS (sodium dodecyl sulfate) solution are added. After 3 hours at 37° C., the absorbance of the formazan is measured at 590 nm and compared with that of the untreated control.

[12] = test system: MCF-7* (MCF-7 mammary carcinoma cells resistant to gemcitabine); experiment: Cytotoxicity (MTT) on gemcitabine-resistant MCF-7 cells; type: cell-based, human; conditions: listed as printed twice per table
Experimental: as §5, §6
Compounds 1 and 3 to 8 corresponding to formula (II) above; compound 2 corresponding to the non-silyl compound, it corresponds to formula (II) above in which R1 represents CH2CH2CH(CH3)2 and was also tested to observe a possible effect of the silicon. These compounds were evaluated for their cytotoxicity on human CEM cells and MCF-7 mammary carcinoma cells resistant (MCM-7*) or non-resistant (MCF-7) to gemcitabine, which is an anticancer nucleoside used in chemotherapy.

[13] = test system: MCF-7 mammary carcinoma cells; experiment: Cytotoxicity (MTT) on MCF-7 cells; type: cell-based, human; conditions: Homo sapiens; for CC50: MCF7, read-out: CC50 MCF-7
Experimental: as §5, §6

[14] = test system: human CEM-SS T lymphoma cells; experiment: Measurement of the intracellular concentrations of 2′-deoxyribonucleotides (dNTP); type: cell-based; conditions: 24 hours; for activity at 50 µM: 1 at 50 μM
Experimental: The protocol adopted for performing this test (Roy, B.; Beuneu, C.; Roux, P.; Buc, H.; Lemaire, G.; Lepoivre, M. Simultaneous determination of pyrimidine or purine deoxyribonucleoside triphosphates using a polymerase assay. Anal. Biochem., 1999, 269, 403-409) consists in culturing human CEM-SS T lymphoma cells in the presence of the test compounds. The concentrations of dNTP and in particular of dATP are measured after 24 hours of incubation. dATP is the nucleoside triphosphate whose concentration decreases the most during tests with standard ribonucleotide reductase inhibitors such as hydroxyurea, which was used as control.
The quantification is related to the number of live cells counted after staining with trypan blue or related to the initial number of cells (approximately two million). It is measured as a percentage relative to a control manipulation.
The effects of compound 1 at 50 μM on the concentrations of 2′-deoxynucleoside 5′-triphosphates (dNTP) necessary for DNA synthesis are calculated from the dNTP concentrations measured after 24 hours and determined in pmol of dNTP/million cells. The percentages are expressed as a percentage of the control with an average of four controls, taking the counts into account, and are compared with that of an anticancer agent, hydroxyurea (HU), tested at a concentration of 63 μM.

[15] = test system: L1210 cell line (mouse lymphoma); experiment: Incorporation of tritiated thymidine; type: cell-based; conditions: L1210 cells
Experimental: These tests are performed on the L1210 cell line (mouse lymphoma) according to a published protocol (Lepoivre M., Flaman J.-M., Bobé P., Lemaire G., Henry Y. J. Biol. Chem., 1994, 269, 21891-21897). The wells are inoculated (10 000 cells per well) and, after culturing for 72 hours, [^3H]thymidine and the test compound are added to the culture medium. After incubation for 8 hours, the DNA is separated from the other cell constituents and the amount of labeled thymidine incorporated is quantified and compared with a control (without compound).
The effects of compound 1 at 50 μM and 200 μM, respectively, on the concentrations of tritiated thymidine incorporated are expressed as a percentage of the control.

[16] = test system: CEM cells; experiment: Cytotoxic concentration in CEM cells (antiviral tests); type: cell-based, human; conditions: First and Second Series, second table; viability of CEM cells
Experimental: as §2, §4

[17] = First and Second Series, second table, read-out: EC50 HIV-1
[18] = Third Series, read-out: EC50 HIV-1
[19] = First and Second Series, second table, CEM cells
[20] = Homo sapiens, MCF7, MCF-7 resistant to gemcitabine

Compound | cytotoxic effect, HeLa [1] | EC50 [2] | CC50 [3] | cytotoxic effect, CEM [4] | EC50 [5, 17] | EC50 [5, 18] | cytotoxic effect, FM3A/0 [6] | cytotoxic effect, Molt4/C8 [7] | cytotoxic effect, L1210/0 [8] | EC50 [10] | MIC (minimum inhibitory concentration) [10] | EC50 ([11]; Homo sapiens, CCRF-CEM) | EC50 [9, 19] | EC50 ([9]; Third Series, CEM cells) | other results
Cc1cn([C@H]2C[C@H](SSCCN)[C@@H](CO)O2)c(=O)[nH]c1=O.Cl [Compound 27, 3′-deoxythymidin-3′-yl 2-aminoethyl disulfide hydrochloride] | >100 | 150 µM | > 250 µM | 437 ± 71 | 27.5 ± 3.5 µM | 20 µM | >500 | 163 ± 41 | 65 ± 9 |  |  |  |  |  | EC50 [9]: 27.5 ± 3.5 µM
Cc1cn([C@H]2CC(SSCCCCCCO)[C@@H](CO)O2)c(=O)[nH]c1=O (some centres unmarked) [Compound 18] | 56 ± 8 | > 50 µM | 107 ± 7 µM | 187 ± 1 | 10.3 ± 5.7 µM | 22.5 ± 3.5 µM | ≧500 | 66 ± 9 | 44 ± 1 | 8.3 ± 2.3 µM | >100 | 152 µM | 11.7 ± 2.9 µM | 17.5 ± 11 µM | EC50 ([5]; read-out: EC50 HIV-1, First and Second Series, first table): 4 µM; EC50 ([9]; First and Second Series, first table, CEM cells): 6.5 ± 0.7 µM
C=CCSS[C@H]1C[C@H](n2cc(C)c(=O)[nH]c2=O)O[C@@H]1CO [Compound 20, 3′-deoxythymidin-3′-yl allyl disulfide] | 40 ± 7 | > 50 µM | 53 ± 7 µM | 128 ± 18 | 12.5 ± 3.5 µM | 17.5 ± 3.5 µM | 299 ± 45 | 34 ± 6 | 43 ± 5 | 2.2 ± 0.3 µM | 100 | 48 µM | 15 ± 7 µM | 20 ± 7 µM | EC50 [11]: 46 µM
Cc1cn([C@@H]2O[C@H](CO)C=C2SCC[Si](C)(C)C)c(=O)[nH]c1=O [Compound 3] |  |  |  |  |  |  |  |  |  |  |  |  |  |  | EC50 [12, 20]: 37 µM; EC50 ([12]; MCF-7 resistant to gemcitabine): 41 µM; CC50 ([11]; Homo sapiens, CCRF-CEM): 13 µM; CC50 [13]: 40 µM
NC(=O)NO [Hydroxyurea, hydroxyurea, reference compound] |  |  |  |  |  |  |  |  |  |  |  |  |  |  | activity at 63 µM ([14]; Hydroxyurea control, 63 μM, read-out: dTTP concentration, % of control): 51%
Cc1cn([C@H]2C[C@H](SSCCO)[C@@H](CO)O2)c(=O)[nH]c1=O [Compound 21, 3′-deoxythymidin-3′-yl 2-hydroxyethyl disulfide] | ≧100 | > 50 µM | > 250 µM | 347 ± 71 | 13.5 ± 3 µM | 17.5 ± 3.5 µM | >500 | 128 ± 33 | 26 ± 3 | 5.9 ± 0.5 µM | >100 | > 200 µM | 14 ± 7 µM | 15 ± 7 µM | 
O=c1ccn([C@@H]2O[C@H](CO)C=C2SSC(Cl)(Cl)Cl)c(=O)[nH]1 [Compound 13, 2′,3′-didehydro-2′,3′-dideoxyuridin-2′-yl trichloromethyl disulfide] |  |  |  |  |  |  |  |  |  |  |  |  |  |  | EC50 [12, 20]: 177 µM; EC50 ([12]; MCF-7 resistant to gemcitabine): 194 µM; EC50 ([13]; MCF7, Table 4, MCF-7): 194 µM
C[Si](C)(C)CCSC1=C[C@@H](CO)O[C@H]1n1ccc(=O)[nH]c1=O [Compound 1, 2′,3′-Didehydro-2′,3′-dideoxy-2′-(2-trimethylsilyl)ethylthiouridine] |  |  |  |  |  |  |  |  |  |  |  |  |  |  | decrease of the incorporation of tritiated thymidine into the DNA ([15]; 50 μM): 38%; tritiated thymidine incorporated as a percentage of the control ([15]; 50 μM): 62%; decrease of the incorporation of tritiated thymidine into the DNA ([15]; 200 μM): 86%; tritiated thymidine incorporated as a percentage of the control ([15]; 200 μM): 14%; activity at 50 µM ([14]; read-out: dATP concentration, % of control): 50%; activity at 50 µM ([14]; read-out: dCTP concentration, % of control): 42%; activity at 50 µM ([14]; read-out: dGTP concentration, % of control): 31%; activity at 50 µM ([14]; read-out: dTTP concentration, % of control): 85%; CC50 ([11]; Homo sapiens, CCRF-CEM): 156 µM; CC50 [13]: 69 µM
CCCCSS[C@H]1C[C@H](n2cc(C)c(=O)[nH]c2=O)O[C@@H]1CO [Compound 24, 3′-deoxythymidin-3′-yl butyl disulfide] | 23 ± 2 | > 10 µM |  | 44 ± 1 | 8 ± 3 µM | > 10 µM | 286 ± 24 | 28 ± 7 | 32 ± 0 | 1 ± 0.5 µM | 100 |  | > 10 µM | > 10 µM | CC50 [16]: 23.3 ± 0.6 µM
